Results from patent US7270767B1, “Environmentally friendly de-icer and anti-icer compositions” (priority 1999, dated 2007).
Like-named read-outs stand apart in the source and are kept apart here.

Tests used:
Rat = conditions: cited from earlier work
D. Magnia = test: Acute aquatic toxicity, 48 hr LC50; format: in vivo, daphnia magna
Description: The present invention provides for deicing and anti-icing compositions that are environmentally advantaged.
As aforesaid, there are environmental issues associated with deicers and anti-icers, mostly as a result of the type of FPD used. Freezing point depressants are typically toxic to mammals. Ethylene glycol, in particular, is toxic to mammals (see rat LD50 data, Table 3). LC50, refers to Lethal Concentration, 50%, which is the concentration of a substance at which 50% of the population of test organisms die. Ethylene glycol has also been listed by the EPA as a hazardous air pollutant (HAP).
Another aspect of concern is the toxicity of FPDs on aquatic life and environment. […] (see Table 4, FPD aquatic toxicity data).

Surface tension = format: physicochemical
Description: Surfactants by their very nature can have toxic effects on aquatic organisms. They can coat surfaces or membranes required for the organism's oxygen exchange with the environment. Thus, it is advantageous for surfactants to degrade rapidly in the environment once their useful purpose has been served. Preferred surfactants for use in the present formulations have low aquatic toxicity (Table 4) and are biodegradable (see FIG. 2). Preferably they are soluble or dispersible in water, so that they form homogenous solutions or mixtures with the FPD/water mixtures in the fluid. Also it is preferred that the surfactant reduces the surface tension of the fluid below 35 dynes/cm (see surface tension, Table 6).

Row | Compound | Acute tox. to D. Magnia, ppm (48 hr LC50) (D. Magnia) | other results
1 | CC(O)CCO (centres unmarked) [1,3 Butanediol, reference compound] | – | Rat Acute Oral Toxicity (LD50, g/kg) (Rat; oral, acute): 18.6 g/kg
2 | OCCO [Ethylene glycol, reference compound] | 77,000 ppm | –
3 | CC(O)CO (centres unmarked) [Propylene glycol, reference compound] | 55,000 ppm | –
4 | OCCOCCOCCO [Triethylene glycol] | 66,000 ppm | Rat Acute Oral Toxicity (LD50, g/kg) (Rat; in vivo, po): 17 g/kg
5 | O [Water] | – | Surface Tension (dynes/cm) (Surface tension): 75 dynes/cm
6 | PEG-12 oleate | 13,000 ppm | –
7 | PEG-20 sorbitan oleate | 46,000 ppm | –
